Key:
Assay type in all cases: binding
influenza A NWS/G70C = test system: influenza A NWS/G70C
[1] = test system: NWS/G70C influenza A virus
[2] = test system: NWS/G70C influenza A virus; remark: listed apart in the source

## 5-acetamido-7-{6′-[6″-(6″′-biotinylaminocaproyl) -tri-amingcaroyl]-aminohexyl}-carbamoyloxy-4-guanidino -2,3,4,5-tetradeoxy-D-glycero-D-gaacto-non-2-enopyranosonic acid [Compound No. 26]
Influenza A NWS/G70C
  compound concentration giving the best results: 0.1 µM
  virus amount readily detected: 2.5×10^5 pfu/well

## CC(=O)N[C@H]1[C@H]([C@H](OC(=O)NCCCCCCNC(=O)NCCCCCCN)[C@H](O)CO)OC(C(=O)O)=C[C@@H]1NC(=N)N [Compound No. 8, 5-acetamido-7-[6′-(6″-aminohexylureido)-hexyl]-carbamoyloxy-4-guanidino-2,3,4,5-tetradeoxy-D-glycero-D-galacto-non-2-enopyranosonic acid]
[1]
  signal in direct detection: no signal at any concentration of virus

## CC(=O)N[C@H]1[C@H]([C@H](OC(=O)NCCCCCCNC(=O)CNC(=O)CNC(=O)CNC(=O)CCCC[C@@H]2SC[C@@H]3NC(=O)N[C@@H]32)[C@H](O)CO)OC(C(=O)O)=C[C@@H]1NC(=N)N [Compound No. 21, 5-acetamido-7-(6′-biotinylamino-tricrlycinamido-hexy) -carbamoyloxy-4-guanidino-2,3,4,5-tetradeoxy-D-glycerQ-D-galacto-non-2-enopyranosonic acid]
[1]
  minimum virus detectable: about 10^5 virus particles per well
[2]
  compound concentration giving the best result: 0.01 µM
  virus detection limit of captured complex: ≤ 0.625×10^5 pfu
